Tested on: gastrin mRNA
Assay: Gastrin mRNA decrease by gastrin siRNA si286
Type: cell-based

Sequence: GUGCUGAGGAUGAGAACUA (listed as RNA, chemistry not given here) [si286]
- decrease of gastrin mRNA: 90%
